According to patent publication US6214969A, “Luteinizing hormone releasing hormone analogs with cytotoxic moiety” (The Administrators of the Tulane Educational Fund, priority 1993, dated 2001):

Key:
[1] = test system: T47D Cell line; assay: Inhibition of 3H-thymidine incorporation into DNA, T47D; type: cell-based, human
Procedure: (§1) 200,000 cells in 200 μl of […]+2% CFBS were incubated with 1, 5 or 10 μg cytotoxic analogs for 3 hours or 23 hours then 1 μCi ^3 H-thymidine added and incubated an additional 60 min. DNA extracted with 1 N perchloric acid and the radioactivity measured.

[2] = test system: MDA-MB-231 Cell Line; assay: Inhibition of 3H-thymidine incorporation into DNA, MDA-MB-231; type: cell-based, human
Procedure: as §1

[3] = test system: SkBr-3 Cell line; assay: Inhibition of 3H-thymidine incorporation into DNA, SkBr-3; type: cell-based, human
Procedure: as §1

[4] = molecular target: T1, membrane receptors of human breast cancer cells (LHRH receptors) (Homo sapiens, UniProt P30968); assay: Receptor binding affinity for human breast cancer cell membranes, 125I-[D-Trp]6 LHRH as labelled ligand; settings: 125I-[D-Trp]6 LHRH ligand, NB = no binding
T1 construct: from tissue
T1 sequence (P30968 1-328): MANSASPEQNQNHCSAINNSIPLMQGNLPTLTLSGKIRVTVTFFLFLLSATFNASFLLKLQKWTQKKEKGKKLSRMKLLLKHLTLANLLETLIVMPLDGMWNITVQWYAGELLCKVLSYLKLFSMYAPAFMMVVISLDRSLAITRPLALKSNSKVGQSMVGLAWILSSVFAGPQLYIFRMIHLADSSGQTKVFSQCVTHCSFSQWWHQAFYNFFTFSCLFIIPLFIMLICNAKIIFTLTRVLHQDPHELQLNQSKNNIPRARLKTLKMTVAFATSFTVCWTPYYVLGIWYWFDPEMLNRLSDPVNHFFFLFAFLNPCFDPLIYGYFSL
Procedure: Affinity for peptides to human breast cancer cell membranes is determined by using labelled LHRH and [D-Trp^6 ]LHRH. The assay is carried out similarly to that described by T. Kadar et al., Proc. Natl. Acad. Sci. USA, 85, 890-894 (1988) and M. Fekete et al., Endocrinology, 124, 946-955 (1989).
(§2) Table 2 presents the antiovulatory activity and human breast cancer cell membrane receptor binding affinity of the claimed compounds having LHRH-inhibiting properties. The inhibitory action was determined in vivo, in 4-day cycling rats as described [A. Corbin and C. W. Beattie, Endocr. Res. Commun., 2, 1-23 (1975)].

[5] = test system: ovulation in 4-day cycling rats; assay: In vivo antiovulatory activity in 4-day-cycling rats; settings: 10 μg per rat
Procedure: This activity of the peptides is determined in 4-day-cycling rats as described [A. Corbin and C. W. Beattie, Endocr. Res. Commun., 2, 1-23 (1975)].
as §2

[6] = test system: dispersed rat pituitary cells (LH release); assay: LH-releasing activity in superfused rat pituitary cell system; type: cell-based; settings: Table 1; compared to that produced by 3 nM LH-RH; peptide infused 3 min
Source text: B. Greenstein, Harwood Academic Publishers, London, (1990)].

[7] = test system: MCF-7 human breast cancer cell line; assay: Inhibition of 3H-thymidine incorporation into DNA, MCF-7; type: cell-based
Procedure: Ability of peptides of Formula I to inhibit incorporation of [^3 H]thymidine into DNA of monolayer cultures the human mammary tumor cell line MCF-7 is assayed as described [V. K. Sondak et al., Cancer Research, 44, 1725-1728 (1984); F. Holzel et al., J. Cancer Res. Clin. Oncol. 109, 217-226 (1985); M. Albert et al., J. Cancer Res. Clin. Oncol. 109, 210-216 (1985)].
as §1

[8] = test system: human mammary cell line MDA-MB-231; settings: 10 μg dose; cited from earlier work

For “pGlu-His-Trp-Ser-Tyr-D-Lys(MTX)-Leu-Arg-Pro-Gly-NH2 [compound 4]”, the “% Inhibition at 4 hrs” value ([1]; dose 1 μg/ml) was 38%, the “% Inhibition at 24 hrs” value ([1]; dose 1 μg/ml) was 26% and the “% Inhibition at 4 hrs” value ([1]; dose 10 μg/ml) was 54%. For the same substance, the “% Inhibition at 24 hrs” value ([1]; dose 10 μg/ml) was 41%, the “% Inhibition at 4 hrs” value ([2]; dose 1 μg/ml) was 23% and the “% Inhibition at 24 hrs” value ([2]; dose 1 μg/ml) was 0%. For the same substance, the “% Inhibition at 4 hrs” value ([2]; dose 10 μg/ml) was 31%, the “% Inhibition at 24 hrs” value ([2]; dose 10 μg/ml) was 8% and the “% Inhibition at 4 hrs” value ([3]; dose 1 μg/ml) was 21%. The “% Inhibition at 24 hrs” value ([3]; dose 1 μg/ml) was 16%, the “% Inhibition at 4 hrs” value ([3]; dose 10 μg/ml) was 36% and the “% Inhibition at 24 hrs” value ([3]; dose 10 μg/ml) was 10%.

For “Ac-D-Nal(2)-D-Phe(4Cl)-D-Trp-Ser-Tyr-D-Lys(D-Mel)-Leu-Arg-Pro-D-Ala-NH. sub.2 [compound 15]”, the “Affinity Constant Ka1” value ([4]; Table 2 (antagonists)) was 3.58 nM⁻¹ and the “% Ovulation Blocked” value [5] was 100%.

With “pGlu-His-Trp-Ser-Tyr-D-Lys[Ahx(MTX)]-Leu-Arg-Pro-Gly-NH2 [compound 34]” the “Relative Activity (LH-releasing activity)” value [6] was 6.7, the “Affinity Constant Ka1” value ([4]; Table 1 (agonists)) was 4.42 nM⁻¹ and the “% Inhibition at 24 hrs” value ([7]; dose 1 μg/ml) was 16%. For the same substance, the “% Inhibition at 24 hrs” value ([7]; dose 10 μg/ml) was 21%.

With “pGlu-His-Trp-Ser-Tyr-D-Lys(MTX)-Leu-Arg-Pro-Gly-NH2 [4B]” the “Affinity Constant Ka1” value ([4]; Table 1 (agonists)) was 0.63 nM⁻¹.

In the case of “pGlu-His-Trp-Ser-Tyr-D-Orn(MTX)-Leu-Arg-Pro-Gly-NH2 [compound 11]”, the “% Inhibition at 4 hrs” value ([7]; dose 1 μg/ml) is reported as 34%, the “% Inhibition at 24 hrs” value ([7]; dose 1 μg/ml) is reported as 7% and the “% Inhibition at 4 hrs” value ([7]; dose 10 μg/ml) is reported as 29%. The “% Inhibition at 24 hrs” value ([7]; dose 10 μg/ml) was 3%.

For “Ac-D-Nal(2)-D-Phe(4Cl)-D-Pal(3)-Ser-Arg-D-Lys(MTX)-Leu-Arg-Pro-D-Ala-NH. sub.2 [compound 29]”, the “Affinity Constant Ka1” value ([4]; Table 2 (antagonists)) was 0.44 nM⁻¹, the “Affinity Constant Ka2” value ([4]; Table 2 (antagonists)) was 1.04 µM⁻¹ and the “% Ovulation Blocked” value [5] was 100%. For the same substance, the “% Inhibition at 24 hrs” value ([7]; dose 1 μg/ml) was 10% and the “% Inhibition at 24 hrs” value ([7]; dose 10 μg/ml) was 16%.

In the case of “pGlu-His-Trp-Ser-Tyr-D-Lys(MTX)-Leu-Arg-Pro-Gly-NH2 [4A]”, the “Affinity Constant Ka1” value ([4]; Table 1 (agonists)) is reported as 5.42 nM⁻¹ and the “Affinity Constant Ka2” value ([4]; Table 1 (agonists)) is reported as 1.59 µM⁻¹.

For “Ac-D-Nal(2)-D-Phe(4Cl)-D-Trp-Ser-Arg-D-Lys(D-Mel)-Leu-Arg-Pro-D-Ala-NH. sub.2 [compound 19]”, the “Affinity Constant Ka2” value ([4]; Table 2 (antagonists)) was 32.54 µM⁻¹, the “% Ovulation Blocked” value [5] was 40% and the “% Inhibition at 24 hrs” value ([7]; dose 1 μg/ml) was 34%. For the same substance, the “% Inhibition at 24 hrs” value ([7]; dose 10 μg/ml) was 49%.

For “pGlu-His-Trp-Ser-Tyr-D-Lys[Ahx-A2 bu(SAL)2 (Cu)]-Leu-Arg-Pro-Gly-NH2”, the “inhibition of [3H]thymidine incorporation into DNA” value [8] is given as 87%.

In the case of “Ac-D-Nal(2)-D-Phe(4Cl)-D-Trp-Ser-Tyr-D-Lys(MTX)-Leu-Arg-Pro-D-Ala-NH2 [compound 18]”, the “Affinity Constant Ka1” value ([4]; Table 2 (antagonists)) is reported as 3.58 nM⁻¹ and the “Affinity Constant Ka2” value ([4]; Table 2 (antagonists)) is reported as 1.07 µM⁻¹.

With “pGlu-His-Trp-Ser-Tyr-D-Lys(Glt-DOX)-Leu-Arg-Pro-Gly-NH2 [compound 33]” the “Relative Activity (LH-releasing activity)” value [6] was 12, the “Affinity Constant Ka2” value ([4]; Table 1 (agonists)) was 14.4 µM⁻¹ and the “% Inhibition at 4 hrs” value ([7]; dose 1 μg/ml) was 19%. The “% Inhibition at 24 hrs” value ([7]; dose 1 μg/ml) was 0%, the “% Inhibition at 4 hrs” value ([7]; dose 5 μg/ml) was 34% and the “% Inhibition at 24 hrs” value ([7]; dose 5 μg/ml) was 61%. The “% Inhibition at 4 hrs” value ([1]; dose 1 μg/ml) was 32%, the “% Inhibition at 24 hrs” value ([1]; dose 1 μg/ml) was 11% and the “% Inhibition at 4 hrs” value ([1]; dose 10 μg/ml) was 44%. The “% Inhibition at 24 hrs” value ([1]; dose 10 μg/ml) was 10%, the “% Inhibition at 4 hrs” value ([2]; dose 1 μg/ml) was 20% and the “% Inhibition at 24 hrs” value ([2]; dose 1 μg/ml) was 0%. The “% Inhibition at 4 hrs” value ([2]; dose 10 μg/ml) was 9%, the “% Inhibition at 24 hrs” value ([2]; dose 10 μg/ml) was 0% and the “% Inhibition at 4 hrs” value ([3]; dose 1 μg/ml) was 27%. For the same substance, the “% Inhibition at 24 hrs” value ([3]; dose 1 μg/ml) was 0%, the “% Inhibition at 4 hrs” value ([3]; dose 10 μg/ml) was 24% and the “% Inhibition at 24 hrs” value ([3]; dose 10 μg/ml) was 14%.
